From US10676462B2, “Quinoline derivative” (ONO PHARMACEUTICAL CO., LTD., priority 2013, dated 2020)

Columns and labels:
Axl enzyme = target: T1, Axl enzyme (Homo sapiens, UniProt P30530); assay: Measurement of an Axl inhibitory activity (LanthaScreen TR-FRET, in vitro test); format: biochemical
T1 construct: a solution containing 400 ng/mL Axl enzyme was prepared
T1 sequence (P30530 26-894): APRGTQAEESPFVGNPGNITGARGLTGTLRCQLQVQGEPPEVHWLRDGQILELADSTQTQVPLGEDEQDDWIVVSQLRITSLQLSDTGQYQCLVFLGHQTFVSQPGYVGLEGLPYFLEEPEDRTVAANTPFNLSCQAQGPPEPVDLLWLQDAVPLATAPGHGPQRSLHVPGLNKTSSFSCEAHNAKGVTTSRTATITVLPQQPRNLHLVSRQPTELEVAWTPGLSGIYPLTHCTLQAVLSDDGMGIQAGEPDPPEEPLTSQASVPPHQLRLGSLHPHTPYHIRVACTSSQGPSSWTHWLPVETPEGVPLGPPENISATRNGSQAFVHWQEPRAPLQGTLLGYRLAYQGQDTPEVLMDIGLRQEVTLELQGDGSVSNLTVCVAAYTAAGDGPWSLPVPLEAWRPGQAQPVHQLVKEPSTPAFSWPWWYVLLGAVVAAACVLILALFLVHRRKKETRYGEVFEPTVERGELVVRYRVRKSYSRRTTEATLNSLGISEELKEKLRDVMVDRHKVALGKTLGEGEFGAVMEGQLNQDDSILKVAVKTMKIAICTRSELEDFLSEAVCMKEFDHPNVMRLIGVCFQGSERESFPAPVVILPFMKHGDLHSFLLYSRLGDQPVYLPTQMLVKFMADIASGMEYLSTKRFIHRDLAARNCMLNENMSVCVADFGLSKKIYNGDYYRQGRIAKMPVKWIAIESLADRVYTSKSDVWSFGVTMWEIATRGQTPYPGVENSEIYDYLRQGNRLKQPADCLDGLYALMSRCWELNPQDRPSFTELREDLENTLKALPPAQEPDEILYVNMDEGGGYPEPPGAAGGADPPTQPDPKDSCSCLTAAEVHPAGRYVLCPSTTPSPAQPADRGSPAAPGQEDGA
Procedure: Biological Example 1: Measurement of an Axl Inhibitory Activity (In Vitro Test)
An Axl enzyme inhibitory activity was measured by using LanthaScreen (registered trademark) system (Invitrogen) based on the attached instruction. The reagents used are shown below.
Reaction buffer solution: a solution containing 50 mmol/L HEPES (pH7.5), 0.01% Brij35, 10 mmol/L MgCl2 and 1 mmol/L EGTA was prepared by using purified water.
Test substance solution: a solution containing a test compound of 5-fold concentration with respect to the final concentration was prepared by 20-fold diluting a DMSO solution of test compound of each concentration with the reaction buffer solution.
Enzyme solution: a solution containing 400 ng/mL Axl enzyme was prepared by using the reaction buffer solution.
Substrate solution: a solution containing 45 μmmol/L ATP and 500 nmmol/L Fluorescein-Poly GT (Invitrogen) was prepared by using the reaction buffer solution.
Detection solution: a solution containing 20 mM EDTA and 4 nM PY20 (Invitrogen) was prepared by using Dilution B (Invitrogen).
A 10 mmol/L DMSO solution of the test compound was dispensed into a 96-well plate (Nunc), and, furthermore, a 3-fold dilution series was prepared using DMSO. In each well of the 96-well plate for measurement, 5 μL each of the reaction buffer solution containing DMSO was added to a Blank group and a medium group, and 5 μL of the test substance solution was added to the test substance group, respectively. Next, 10 μL/well of the reaction buffer solution was added to the Blank group, and 10 μL/well each of the enzyme solution was added to the medium group and the test compound group, followed by stirring at room temperature for 10 min. After the completion of stirring, 10 μL each of the substrate solution was added into each well, followed by stirring at room temperature with light shielded for one hour. After the completion of reaction, 25 μL each of the detection solution was added to each well, and stood still at room temperature with light shielded for 30 min. After standing sill, fluorescence intensity at 520 nm and 495 nm at the time of irradiation with exciting light of 340 nm was measured by using Analyst GT (Molecular Devices). The phosphorylation of the artificial substrate was quantified by Time-resolved Fluorescence Resonance Energy Transfer (TR-FRET). TR-FRET ratio was calculated by dividing 520 nm fluorescence signal by 495 nm fluorescence signal for each well, and the inhibition rate (%) in the test compound group was calculated based on the following mathematical formula. Inhibition rate (%)=[1−(TR-FRET ratio of test compound group−A)/(B−A)×100 [Math. 1] A: average value of TR-FRET ratios of Blank group B: average value of TR-FRET ratios of medium group
Values of 50% inhibition rate (IC50 values) of the test compound were calculated from the inhibition curve based on the inhibition rate of the test compounds in each concentration.

Ba/F3 Axl = target: T2, Ba/F3 Axl (Homo sapiens, UniProt P30530); assay: Proliferation suppression rate using mouse pro-B cell line (Ba/F3 Axl) stably expressing Axl; format: cell-based; details: Ba/F3 Axl cells, 48 hours, CellTiter-Glo; read-out: IC50 value, proliferation suppression of Ba/F3 Axl
T2 sequence (P30530 1-894): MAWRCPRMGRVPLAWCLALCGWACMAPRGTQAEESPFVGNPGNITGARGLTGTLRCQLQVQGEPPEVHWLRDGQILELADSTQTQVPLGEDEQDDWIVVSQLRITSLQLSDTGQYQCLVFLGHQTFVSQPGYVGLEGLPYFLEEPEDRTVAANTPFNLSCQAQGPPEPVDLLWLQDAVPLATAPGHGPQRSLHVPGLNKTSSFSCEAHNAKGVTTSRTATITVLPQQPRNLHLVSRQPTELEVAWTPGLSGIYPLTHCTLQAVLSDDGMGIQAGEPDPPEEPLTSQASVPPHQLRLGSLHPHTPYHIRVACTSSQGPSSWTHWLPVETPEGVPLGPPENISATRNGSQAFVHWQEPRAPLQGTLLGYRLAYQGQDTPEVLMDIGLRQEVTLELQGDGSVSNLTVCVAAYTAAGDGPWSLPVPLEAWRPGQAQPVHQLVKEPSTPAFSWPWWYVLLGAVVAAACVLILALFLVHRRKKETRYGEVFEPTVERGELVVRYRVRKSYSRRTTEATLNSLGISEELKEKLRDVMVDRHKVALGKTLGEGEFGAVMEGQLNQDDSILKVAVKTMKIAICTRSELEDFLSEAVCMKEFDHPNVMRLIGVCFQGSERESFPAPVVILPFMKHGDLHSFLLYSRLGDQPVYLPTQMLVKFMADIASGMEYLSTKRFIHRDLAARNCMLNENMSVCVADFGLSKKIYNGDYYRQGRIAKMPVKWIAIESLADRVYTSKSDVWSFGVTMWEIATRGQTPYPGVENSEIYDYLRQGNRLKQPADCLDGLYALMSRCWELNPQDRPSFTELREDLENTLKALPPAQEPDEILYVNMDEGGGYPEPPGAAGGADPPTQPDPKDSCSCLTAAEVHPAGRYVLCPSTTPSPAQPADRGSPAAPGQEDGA
Procedure: Biological Example 2: Measurement of Proliferation Suppression Rate by Using Mouse Pro-B Cell Line (Ba/F3 Axl) Stably Expressing Axl
A 0.1 mmol/L DMSO solution of the test compound was dispensed into a 96-well plate, and a 3-fold dilution series was prepared using DMSO. DMSO solutions of test compounds, having various concentrations, were further 500-fold diluted with a RPMI1640 medium (containing 10% HI-FBS, 1% penicillin) and a diluted solution of the test compound having […] with respect to the final concentration was prepared. In each well of the 96-well plate (BD Biosciences) for measurement, 50 μL of a RPMI medium was added to the Blank group, 50 μL of a RPMI medium containing 0.2% DMSO was added to the medium group, and 50 μL of the diluted solution of the test compound was added to the test compound group, respectively. Ba/F3 Axl was diluted with a medium to have a density of 2×10^5 cells/mL to prepare a cell suspension. In each well of the 96-well plate for measurement, 50 μL each of the RPMI medium was added to the Blank group, and 50 μL each of the cell suspension to the medium group and the test compound group, respectively, and the groups were stood still at 37° C. at 5% CO2 for 48 hours. After standing still, Relative Light Unit (RLU) was measured by using CELLTITER-GLO (registered trademark) LUMINESCENT CELL VIABILITY ASSAY (Promega). The measurement was carried out according to the attached instruction. To each well, 100 μL each of light-emitting solution was added. The plate was stirred at room temperature for 3 min and then stool still at room temperature with light shielded for 10 min, and RLU was measured by using Microplate Reader (SpectraMax M5e, Molecular Devices). The average values of RLU of the Blank group and the medium group were respectively calculated, and the proliferation suppression rate of the test compound group was calculated. Proliferation suppression rate (%)={1−(RLU of test compound group−A)/(B−A)}×100 [Math. 2] A: average value of RLU of Blank group B: average value of RLU of medium group
A value of 50% inhibition rate (IC50 value) of the test compound was calculated from the inhibition curve based on the inhibition rate in each concentration of the test compound.

KDR = KDR (Homo sapiens, UniProt P35968); assay: Evaluation of kinase selectivity (in vitro test), KDR; format: biochemical; details: Axl selective inhibitory activity with respect to KDR, ratio of IC50 values
Procedure: Biological Example 3: Evaluation of Kinase Selectivity (In Vitro Test)
Similar to Biological Example 1, values of 50% inhibition rate (IC50 value) with respect to various kinases (KDR, DDR1, FLT4, and ROS) of the test compound were measured. The Axl selective inhibitory activity of the test compound with respect to kinases, for example, KDR, was calculated based on the above-mentioned ratio of the IC50 values. As the test compound, for the compound of the present invention, the compounds of Examples 5, 5(1), 17(2), and 23(2) were used, and for the comparative compounds, the compound of Example 5 (Comparative compound C) and the compound of Example 92 (Comparative compound D) described in Patent Literature 5, having the following structure, were used.

Chain of KDR (P35968 20-1356): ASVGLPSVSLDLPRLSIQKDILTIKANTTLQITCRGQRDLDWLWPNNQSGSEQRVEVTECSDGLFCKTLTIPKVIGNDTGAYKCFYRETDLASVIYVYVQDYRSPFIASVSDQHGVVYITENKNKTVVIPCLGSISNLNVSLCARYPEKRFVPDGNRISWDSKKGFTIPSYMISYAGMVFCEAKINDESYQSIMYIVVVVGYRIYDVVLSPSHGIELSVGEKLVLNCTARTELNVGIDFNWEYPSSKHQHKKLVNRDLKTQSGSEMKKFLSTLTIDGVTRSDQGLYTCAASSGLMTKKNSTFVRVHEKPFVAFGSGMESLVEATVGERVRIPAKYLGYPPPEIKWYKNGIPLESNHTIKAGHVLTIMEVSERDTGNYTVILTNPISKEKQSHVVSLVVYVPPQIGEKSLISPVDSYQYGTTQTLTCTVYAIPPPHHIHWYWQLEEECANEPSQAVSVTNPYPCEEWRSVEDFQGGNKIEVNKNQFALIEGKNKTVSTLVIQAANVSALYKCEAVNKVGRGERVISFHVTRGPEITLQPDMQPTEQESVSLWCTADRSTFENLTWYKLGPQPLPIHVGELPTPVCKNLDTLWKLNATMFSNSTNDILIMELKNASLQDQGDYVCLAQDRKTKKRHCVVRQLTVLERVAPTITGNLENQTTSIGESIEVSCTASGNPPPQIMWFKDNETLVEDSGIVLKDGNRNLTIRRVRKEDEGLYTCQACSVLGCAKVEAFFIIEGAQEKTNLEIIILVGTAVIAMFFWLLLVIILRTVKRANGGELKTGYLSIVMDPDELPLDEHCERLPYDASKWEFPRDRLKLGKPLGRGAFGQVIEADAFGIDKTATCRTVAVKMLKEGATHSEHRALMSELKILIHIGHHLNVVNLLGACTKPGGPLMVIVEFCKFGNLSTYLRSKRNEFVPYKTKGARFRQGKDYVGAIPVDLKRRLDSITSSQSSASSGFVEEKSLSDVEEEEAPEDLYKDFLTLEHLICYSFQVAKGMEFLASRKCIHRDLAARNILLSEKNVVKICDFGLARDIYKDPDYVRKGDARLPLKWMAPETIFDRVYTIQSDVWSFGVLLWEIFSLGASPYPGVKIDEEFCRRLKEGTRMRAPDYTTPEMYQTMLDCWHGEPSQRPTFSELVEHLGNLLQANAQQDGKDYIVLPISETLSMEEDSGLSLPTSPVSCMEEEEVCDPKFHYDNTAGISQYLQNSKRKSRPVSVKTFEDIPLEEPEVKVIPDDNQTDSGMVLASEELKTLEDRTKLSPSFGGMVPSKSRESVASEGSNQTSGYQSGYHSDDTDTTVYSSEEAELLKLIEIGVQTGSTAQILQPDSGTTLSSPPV

| Compound | IC50 (Axl enzyme) [nM] | GI50 (Ba/F3 Axl) [nM] | KDR [IC50]/Axl [IC50] (KDR) |
| --- | --- | --- | --- |
| COc1cc2nccc(Oc3ccc(NC(=O)c4nn(C)c5ccccc45)cc3F)c2cc1OC [Comparative compound A, reference compound] | > 10000 | 620 | – |
| COc1cc2nccc(Oc3ccc(NC(=O)c4cc5ccccc5[nH]c4=O)cc3)c2cc1OC [Comparative compound B, reference compound] | > 10000 | > 10000 | – |
| COc1cc2c(Oc3ccc(NC(=O)c4cccc5cccnc45)cc3F)ccnc2cc1OCCCN1CCOCC1 [Comparative compound C, reference compound] | – | – | about 0.2 times |

Now from value to compound:

| IC50 (Axl enzyme) [nM] | GI50 (Ba/F3 Axl) [nM] | KDR [IC50]/Axl [IC50] (KDR) | Compound |
| --- | --- | --- | --- |
| – | – | about 28 times | COc1cc2c(Oc3ccc(NC(=O)c4ccnn(-c5ccc(F)cc5)c4=O)cn3)ccnc2cc1OCCCN1CCOCC1 [Comparative compound D, reference compound] |
| 4.3 | 7.8 | – | COc1cc2nccc(Oc3ccc(NC(=O)c4cc5c(n(CC(C)(C)C)c4=O)CCCC5=O)nc3)c2cc1OC [Example 5(6), N-{5-[(6,7-dimethoxy-4-quinolinyl)oxy]-2-pyridinyl}-1-(2,2-dimethylpropyl)-2,5-dioxo-1,2,5,6,7,8-hexahydro-3-quinolinecarboxamide] |
